Measurements from the supplement of paper PMC10307832.

What was measured:
Test in all cases: relative viability (nuclei count vs DMSO), 5 days (fraction); higher = more cells survive
BAY61-3606 + Pemetrexed = compound: COC1=C(C=C(C=C1)C2=CC3=NC=CN3C(=N2)NC4=C(C=CC=N4)C(=O)N)OC [BAY61-3606] + Nc1nc2[nH]cc(CCc3ccc(C(=O)N[C@@H](CCC(=O)O)C(=O)O)cc3)c2c(=O)[nH]1 [Pemetrexed] (partner 0.2 µM)
In short: (§1)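 For relative viability, nuclei counts in treated wells were divided by those in vehicle wells. Lung cancer cell lines had been pin-tool dosed in 1536-well plates the day after seeding and cultured for 5 days, then fixed and stained in one step (final 0.05% Triton X-100, 1% formaldehyde, 1 ug/ml Hoechst) and imaged at 4×. Doses were one drug alone or a fixed anchor-drug dose plus five library-drug doses (not always all listed) in √10 steps, and values are duplicate-plate medians.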

BAY61-3606 + Decitabine = compound: COC1=C(C=C(C=C1)C2=CC3=NC=CN3C(=N2)NC4=C(C=CC=N4)C(=O)N)OC [BAY61-3606] + Nc1ncn([C@H]2C[C@H](O)[C@@H](CO)O2)c(=O)n1 [Decitabine] (partner 2 µM)
In short: as §1

Doxorubicin + Linsitinib = compound: COc1cccc2c1C(=O)c1c(O)c3c(c(O)c1C2=O)C[C@@](O)(C(=O)CO)C[C@@H]3O[C@H]1C[C@H](N)[C@H](O)[C@H](C)O1 [Doxorubicin] + C[C@]1(O)C[C@@H](c2nc(-c3ccc4ccc(-c5ccccc5)nc4c3)c3c(N)nccn32)C1 [Linsitinib] (partner 1 µM)
In short: as §1

BAY61-3606 + Phenformin = compound: COC1=C(C=C(C=C1)C2=CC3=NC=CN3C(=N2)NC4=C(C=CC=N4)C(=O)N)OC [BAY61-3606] + N=C(N)NC(=N)NCCc1ccccc1 [Phenformin] (partner 250 µM)
In short: as §1

## UMC-11
BAY61-3606 + Pemetrexed; first compound 0.02 µM
  relative viability: 0.813
BAY61-3606 + Pemetrexed; first compound 0.06325 µM
  relative viability: 0.795
BAY61-3606 + Pemetrexed; first compound 0.2 µM
  relative viability: 0.789
BAY61-3606 + Pemetrexed; first compound 0.6325 µM
  relative viability: 0.781
BAY61-3606 + Pemetrexed; first compound 2 µM
  relative viability: 0.612
BAY61-3606 + Decitabine; first compound 0.02 µM
  relative viability: 0.65
BAY61-3606 + Decitabine; first compound 0.06325 µM
  relative viability: 0.476
BAY61-3606 + Decitabine; first compound 0.2 µM
  relative viability: 0.601
BAY61-3606 + Decitabine; first compound 0.6325 µM
  relative viability: 0.597
BAY61-3606 + Decitabine; first compound 2 µM
  relative viability: 0.548
Doxorubicin + Linsitinib; first compound 0.001 µM
  relative viability: 1.1
Doxorubicin + Linsitinib; first compound 0.003162 µM
  relative viability: 1.13
Doxorubicin + Linsitinib; first compound 0.01 µM
  relative viability: 1.09
Doxorubicin + Linsitinib; first compound 0.03162 µM
  relative viability: 0.803
Doxorubicin + Linsitinib; first compound 0.1 µM
  relative viability: 0.875
BAY61-3606 + Phenformin; first compound 0.02 µM
  relative viability: 0.333
BAY61-3606 + Phenformin; first compound 0.06325 µM
  relative viability: 0.339
BAY61-3606 + Phenformin; first compound 0.2 µM
  relative viability: 0.334
BAY61-3606 + Phenformin; first compound 0.6325 µM
  relative viability: 0.332
BAY61-3606 + Phenformin; first compound 2 µM
  relative viability: 0.298
